Experimental data: ChEMBL document CHEMBL2311486, “Development of vizantin, a safe immunostimulant, based on the structure-activity relationship of trehalose-6,6'-dicorynomycolate” (J Med Chem, 2013)
Calls of active or inactive are those of the source. The calls are words filed in the database; no cut-off is given here.

Legend:
Mus musculus [1] = experiment: Immunostimulatory activity in ICR mouse assessed as induction of MIP-1beta release at 100 uM, iv after 2 hrs by ELISA; format: functional, organism-based
Mus musculus [2] = experiment: Immunostimulatory activity in ICR mouse assessed as induction of IL-6 release at 100 uM, iv after 2 hrs by ELISA; format: functional, organism-based
Macrophage [3] = experiment: Immunostimulatory activity in ICR mouse macrophage assessed as induction of phagocytic activity at 50 uM after 2 hrs by fluorescent microsphere assay; format: functional, cell-based
DLD-1 = experiment: Immunostimulatory activity in human DLD1 cells assessed as induction of MIP-1beta release at 100 uM after 3 hrs by ELISA; format: functional, cell-based
THP-1 [4] = experiment: Immunostimulatory activity in human THP1 cells assessed as induction of MIP-1beta release at 100 uM after 3 hrs by ELISA; format: functional, cell-based
A549 = experiment: Immunostimulatory activity in human A549 cells assessed as induction of MIP-1beta release at 100 uM after 3 hrs by ELISA; format: functional, cell-based
Mus musculus [5] = experiment: Antitumor activity against mouse B16F0 cells allografted in C57BL/6 mouse assessed as inhibition of lung metastasis at 1000 ug, iv administered at 7-day interval over 14 days prior to tumor implantation measured on day 28 relative to control; format: functional
Macrophage [6] = experiment: Immunostimulatory activity in ICR mouse macrophage assessed as induction of phagocytic activity measuring IL-6 secretion at 50 uM after 2 hrs by ELISA; format: functional, cell-based
Macrophage [7] = experiment: Immunostimulatory activity in ICR mouse macrophage assessed as induction of phagocytic activity measuring MIP-1beta secretion at 50 uM after 2 hrs by ELISA; format: functional, cell-based
Salmonella typhimurium = experiment: Genotoxicity in Salmonella typhimurium TA98 after 30 mins by Ames test; format: toxicity, organism-based; settings: salmonella enterica subsp. enterica serovar typhimurium, 0.5 h
Mus musculus [8] = experiment: Toxicity in mouse assessed as mortality at 50 mg, ip administered at 7-day interval; format: organism-based; settings: in vivo
[9] = Antitumor activity against mouse B16F0 cells allografted in C57BL/6 mouse assessed as inhibition of lung metastasis at 100 ug, iv administered at 7-day interval over 14 days prior to tumor implantation measured on day 21 relative to control; format: functional
THP-1 [10] = experiment: Cytotoxicity against human THP1 cells assessed as induction of TNF-alpha release; format: cell-based
Mus musculus [11] = experiment: Antitumor activity against mouse B16F0 cells allografted in C57BL/6 mouse assessed as inhibition of lung metastasis at 500 ug, iv administered at 7-day interval over 14 days prior to tumor implantation measured on day 28 relative to control; format: functional
[12] = Antitumor activity against mouse B16F0 cells allografted in C57BL/6 mouse assessed as inhibition of lung metastasis at 100 ug, iv administered at 7-day interval over 14 days prior to tumor implantation measured on day 28 relative to control; format: functional

| SMILES | Activity (Mus musculus [1]) | Activity (Mus musculus [2]) | Activity (Macrophage [3]) | other results |
| --- | --- | --- | --- | --- |
| CCCCCCCCC(CCCCCCCC)CC(=O)OC[C@H]1O[C@H](O[C@H]2O[C@H](COC(=O)CC(CCCCCCCC)CCCCCCCC)[C@@H](O)[C@H](O)[C@H]2O)[C@H](O)[C@@H](O)[C@@H]1O | Active | Active |  |  |
| CCCCCCCCCCCCCC(CCCCCCCCCCCCC)C(=O)OC[C@H]1O[C@H](O[C@H]2O[C@H](COC(=O)C(CCCCCCCCCCCCC)CCCCCCCCCCCCC)[C@@H](O)[C@H](O)[C@H]2O)[C@H](O)[C@@H](O)[C@@H]1O | Active | Active |  |  |
| CCCCCCCCC(CCCCCCCC)C(=O)OC[C@H]1O[C@H](O[C@H]2O[C@H](COC(=O)C(CCCCCCCC)CCCCCCCC)[C@@H](O)[C@H](O)[C@H]2O)[C@H](O)[C@@H](O)[C@@H]1O | Active | Active |  |  |
| CCCCCCCCCCC(CCCCCCCCCC)C(=O)OC[C@H]1O[C@H](O[C@H]2O[C@H](COC(=O)C(CCCCCCCCCC)CCCCCCCCCC)[C@@H](O)[C@H](O)[C@H]2O)[C@H](O)[C@@H](O)[C@@H]1O | Active | Active | Active | Activity (DLD-1): inactive; Activity (THP-1 [4]): inactive; Activity (A549): inactive |
| CCCCCCCCCCCC(CCCCCCCCCCC)CC(=O)OC[C@H]1O[C@H](O[C@H]2O[C@H](COC(=O)CC(CCCCCCCCCCC)CCCCCCCCCCC)[C@@H](O)[C@H](O)[C@H]2O)[C@H](O)[C@@H](O)[C@@H]1O | Active | Active |  |  |
| CCCCCCCCCCCC(CCCCCCCCCCC)C(=O)OC[C@H]1O[C@H](O[C@H]2O[C@H](COC(=O)C(CCCCCCCCCCC)CCCCCCCCCCC)[C@@H](O)[C@H](O)[C@H]2O)[C@H](O)[C@@H](O)[C@@H]1O | Active | Active |  |  |
| CCCCCCCCCCC(CCCCCCCCCC)CC(=O)OC[C@H]1O[C@H](O[C@H]2O[C@H](COC(=O)CC(CCCCCCCCCC)CCCCCCCCCC)[C@@H](O)[C@H](O)[C@H]2O)[C@H](O)[C@@H](O)[C@@H]1O | Active | Active |  |  |
| CCCCCCCCCCCCCCC(CCCCCCCCCCCCCC)C(=O)OC[C@H]1O[C@H](O[C@H]2O[C@H](COC(=O)C(CCCCCCCCCCCCCC)CCCCCCCCCCCCCC)[C@@H](O)[C@H](O)[C@H]2O)[C@H](O)[C@@H](O)[C@@H]1O | Active | Active |  |  |
| CCCCCCCCCCCCCCCC(CCCCCCCCCCCCCCC)C(=O)OC[C@H]1O[C@H](O[C@H]2O[C@H](COC(=O)C(CCCCCCCCCCCCCCC)CCCCCCCCCCCCCCC)[C@@H](O)[C@H](O)[C@H]2O)[C@H](O)[C@@H](O)[C@@H]1O | Active | Active |  |  |
| CCCCCCCCCCCC(=O)O |  |  | inactive |  |
| CCCCCCCCCCCCCC(CCCCCCCCCCCCC)CC(=O)OC[C@H]1O[C@H](O[C@H]2O[C@H](COC(=O)CC(CCCCCCCCCCCCC)CCCCCCCCCCCCC)[C@@H](O)[C@H](O)[C@H]2O)[C@H](O)[C@@H](O)[C@@H]1O | Active | Active |  |  |
| CCCCCCCCCCCCCCC(CCCCCCCCCCCCCC)CC(=O)OC[C@H]1O[C@H](O[C@H]2O[C@H](COC(=O)CC(CCCCCCCCCCCCCC)CCCCCCCCCCCCCC)[C@@H](O)[C@H](O)[C@H]2O)[C@H](O)[C@@H](O)[C@@H]1O | Active | Active |  |  |
| CCCCCCCCCCCCCCCCC(CCCCCCCCCCCCCCCC)C(=O)OC[C@H]1O[C@H](O[C@H]2O[C@H](COC(=O)C(CCCCCCCCCCCCCCCC)CCCCCCCCCCCCCCCC)[C@@H](O)[C@H](O)[C@H]2O)[C@H](O)[C@@H](O)[C@@H]1O | Active | Active |  |  |
| CCCCCCCCCC(CCCCCCCCC)CCC(=O)OC[C@H]1O[C@H](O[C@H]2O[C@H](COC(=O)CCC(CCCCCCCCC)CCCCCCCCC)[C@@H](O)[C@H](O)[C@H]2O)[C@H](O)[C@@H](O)[C@@H]1O |  |  | inactive |  |
| CCCCCCCCCCCCCCC[C@@H](O)[C@@H](CCCCCCCCCCCCCC)C(=O)OC[C@H]1O[C@H](O[C@H]2O[C@H](COC(=O)[C@H](CCCCCCCCCCCCCC)[C@H](O)CCCCCCCCCCCCCCC)[C@@H](O)[C@H](O)[C@H]2O)[C@H](O)[C@@H](O)[C@@H]1O | Active | Active | Active | inhibition (INH) (Mus musculus [5]): 41%; Activity (DLD-1): inactive; Activity (Macrophage [6]): Active; Activity (Macrophage [7]): Active; Activity (THP-1 [4]): inactive; Activity (A549): inactive |
| CCCCCCCCCCCCC(CCCCCCCCCCCC)CC(=O)OC[C@H]1O[C@H](O[C@H]2O[C@H](COC(=O)CC(CCCCCCCCCCCC)CCCCCCCCCCCC)[C@@H](O)[C@H](O)[C@H]2O)[C@H](O)[C@@H](O)[C@@H]1O | Active | Active |  |  |
| CCCCCCCCCCCCCCC[C@@H](OC)[C@@H](CCCCCCCCCCCCCC)C(=O)OC[C@H]1O[C@H](O[C@H]2O[C@H](COC(=O)[C@H](CCCCCCCCCCCCCC)[C@@H](CCCCCCCCCCCCCCC)OC)[C@@H](O)[C@H](O)[C@H]2O)[C@H](O)[C@@H](O)[C@@H]1O |  |  | Active | Activity (Macrophage [6]): Active; Activity (Macrophage [7]): Active |
| CCCCCCCCCCCCCCCCC(CCCCCCCCCCCCCC)C(=O)OC[C@H]1O[C@H](O[C@H]2O[C@H](COC(=O)C(CCCCCCCCCCCCCC)CCCCCCCCCCCCCCCC)[C@@H](O)[C@H](O)[C@H]2O)[C@H](O)[C@@H](O)[C@@H]1O (stereo not given in full) | Active | Active | Active |  |
| CCCCCCCCCCCCC(CCCCCCCCCCCC)C(=O)OC[C@H]1O[C@H](O[C@H]2O[C@H](COC(=O)C(CCCCCCCCCCCC)CCCCCCCCCCCC)[C@@H](O)[C@H](O)[C@H]2O)[C@H](O)[C@@H](O)[C@@H]1O | Active | Active |  |  |
| CCCCCCCCCC(CCCCCCCCC)CC(=O)OC[C@H]1O[C@H](O[C@H]2O[C@H](COC(=O)CC(CCCCCCCCC)CCCCCCCCC)[C@@H](O)[C@H](O)[C@H]2O)[C@H](O)[C@@H](O)[C@@H]1O [VIZANTIN] | Active | Active | Active | Activity (Salmonella typhimurium): Non-toxic; Activity (Mus musculus [8]): Non-toxic; inhibition (INH) (Mus musculus [5]): 66%; inhibition (INH) [9]: >98%; Activity (THP-1 [10]): Non-toxic; Activity (DLD-1): inactive; inhibition (INH) (Mus musculus [11]): 62%; inhibition (INH) [12]: 57%; Activity (THP-1 [4]): Active; Activity (A549): inactive |
| CCCCCCCCCC(CCCCCCCCC)C(=O)OC[C@H]1O[C@H](O[C@H]2O[C@H](COC(=O)C(CCCCCCCCC)CCCCCCCCC)[C@@H](O)[C@H](O)[C@H]2O)[C@H](O)[C@@H](O)[C@@H]1O | Active | Active |  |  |
| CCCCCCCCC(CCCCCCCC)CCC(=O)OC[C@H]1O[C@H](O[C@H]2O[C@H](COC(=O)CCC(CCCCCCCC)CCCCCCCC)[C@@H](O)[C@H](O)[C@H]2O)[C@H](O)[C@@H](O)[C@@H]1O |  |  | inactive |  |
